This assay deals with T1, Recombinant pure human SQSTM1 protein (Homo sapiens, UniProt Q13501).
T1 construct: purchased Origene
In words: Inhibition of IA-Rhodamine labeling of SQSTM1 (gel-based, densitometry). It is filed as binding. Conditions: 50 μM of test compound (initial screen); 30 min at 37° C., then 100 nM IA-Rhodamine 1 hour; inhibition of target labeling by densitometry. On the procedure: Recombinant pure human SQSTM1 protein was purchased from Origene. SQSTM1 protein (0.21 μg) was diluted into 50 μL of PBS and 1 μL of either DMSO (vehicle) or covalently acting small molecule (test compound) to achieve the desired concentration. After 30 min. at 37° C., the samples were treated with 100 nM IA-Rhodamine (tetramethylrhodamine-5-iodoacetamide dihydroiodide; Setareh Biotech, 6222, prepared in anhydrous DMSO) for 1 hour at room temperature. Samples were then diluted with 20 μL of 4× reducing Laemmli SDS sample loading buffer (Alfa Aesar) and heated at 90° C. for 5 min. The samples were separated on precast 4-20% Criterion TGX gels (Bio-Rad Laboratories, Inc.). Fluorescent imaging was performed on a ChemiDoc MP instrument (Bio-Rad Laboratories, Inc.), and inhibition of target labeling was assessed by densitometry using ImageJ software. The initial screen was performed using 50 μM of test compound.

T1 sequence (Q13501 whole entry): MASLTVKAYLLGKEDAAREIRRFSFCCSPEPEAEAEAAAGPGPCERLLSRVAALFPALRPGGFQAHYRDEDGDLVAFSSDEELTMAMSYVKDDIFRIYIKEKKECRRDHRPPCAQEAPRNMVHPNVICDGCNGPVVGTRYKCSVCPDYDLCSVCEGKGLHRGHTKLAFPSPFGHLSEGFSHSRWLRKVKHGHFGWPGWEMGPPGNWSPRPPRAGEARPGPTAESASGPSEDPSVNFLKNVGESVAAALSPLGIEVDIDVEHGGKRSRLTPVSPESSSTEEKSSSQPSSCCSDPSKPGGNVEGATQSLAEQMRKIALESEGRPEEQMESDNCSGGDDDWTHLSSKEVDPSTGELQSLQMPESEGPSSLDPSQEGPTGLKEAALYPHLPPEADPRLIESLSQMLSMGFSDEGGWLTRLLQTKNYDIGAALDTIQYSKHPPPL

As to `CC1(F)CCCN(C(=O)CCl)CC1` (centres unmarked) [Compound 36, 2-chloro-1-(4-fluoro-4-methylazepan-1-yl)ethanone], the inhibition at 50 µM is 34%.

With `O=C(CCl)N1CCC(F)C(O)(C(F)(F)F)CC1` (centres unmarked) [Compound 24, 2-chloro-1-(5-fluoro-4-hydroxy-4-(trifluoromethyl)azepan-1-yl)ethanone], the “% inhibition” value is listed as “not active”.

Consider `CC1(F)CCCCN(C(=O)CCl)C1` (centres unmarked) [Compound 29, 2-chloro-1-(3-fluoro-3-methylazepan-1-yl)ethanone], for which the inhibition at 50 µM came out at 38%.

Take `CC1CCN(C(=O)CCl)CCC1CNC(=O)OCc1ccccc1` (centres unmarked) [Compound 41, Benzyl ((1-(2-chloroacetyl)-5-methylazepan-4-yl)methyl)carbamate]: the inhibition at 50 µM came out at 54%.

Regarding `O=C(CCl)N1CCCCC(O)(CF)C1` (centres unmarked) [Compound 32, 2-chloro-1-(3-(fluoromethyl)-3-hydroxyazepan-1-yl)ethanone], the inhibition at 50 µM was 17%.

Consider `O=C(CCl)N(Cc1ccccc1)[C@H]1COC[C@@H]1O` [Compound 5, N-benzyl-2-chloro-N-((3S,4R)-4-hydroxytetrahydrofuran-3-yl)acetamide], for which the “% inhibition” value is 25%.

Take `O=C(CCl)N(C1CCNCC1)C1CCOCC1` [Compound 63, 2-chloro-N-(piperidin-4-yl)-N-(tetrahydro-2H-pyran-4-yl)acetamide]: the “% inhibition” value is “not active”.

As for `CC1CCN(C(=O)CCl)CCC1(F)F` (centres unmarked) [Compound 40, 2-chloro-1-(4,4-difluoro-5-methylazepan-1-yl)ethanone], the “% inhibition” value was “not active”.

Turning to `CC(C)(C)OC(=O)N1CCC(N(C(=O)CCl)C2CCOCC2)CC1` [Compound 7, Tert-butyl 4-(2-chloro-N-(tetrahydro-2H-pyran-4-yl)acetamido)piperidine-1-carboxylate], the inhibition at 50 µM was determined as 61%.

Turning to `C[C@H]1CN(C(=O)OC(C)(C)C)CCCN1C(=O)CCl` [Compound 12, (S)-tert-butyl 4-(2-chloroacetyl)-3-methyl-1,4-diazepane-1-carboxylate], the “% inhibition” value is given as “not active”.

`O=C(CCl)N1CCC(F)C(F)(F)CC1` (centres unmarked) [Compound 43, 2-chloro-1-(4,4,5-trifluoroazepan-1-yl)ethanone]: the inhibition at 50 µM is 25%.

With `O=C(CCl)N1CCCCC(O)C1` (centres unmarked) [Compound 44, 2-chloro-1-(3-hydroxyazepan-1-yl)ethanone], the inhibition at 50 µM is 13%.

In the case of `CCOC(=O)C1(C)CCCCN(C(=O)CCl)C1` (centres unmarked) [Compound 25, Ethyl 1-(2-chloroacetyl)-3-methylazepane-3-carboxylate], the inhibition at 50 µM is 31%.

`O=C(CCl)N1CCCC(O)(C(F)(F)F)CC1` (centres unmarked) [Compound 33, 2-chloro-1-(4-hydroxy-4-(trifluoromethyl)azepan-1-yl)ethanone]: the inhibition at 50 µM was found to be 32%.

With `O=C1CCN(C(=O)CCl)CCC1F` (centres unmarked) [Compound 47, 1-(2-chloroacetyl)-5-fluoroazepan-4-one], the inhibition at 50 µM is 36%.

As to `O=C(CCl)N(Cc1ccccc1)C1CCCCC1` [Compound 2, N-benzyl-2-chloro-N-cyclohexylacetamide], the inhibition at 50 µM is 50%.

As for `COC(=O)c1ccc(CN(C(=O)CCl)C2CCN(C(=O)OC(C)(C)C)CC2)[nH]1` [Compound 9, Tert-butyl 4-(2-chloro-N-((5-(methoxycarbonyl)-1H-pyrrol-2-yl)methyl)acetamido) piperidine-1-carboxylate], the inhibition at 50 µM was 64%.

In the case of `O=C(CCl)N(C1CCNCC1)C1CC1` [Compound 62, 2-chloro-N-cyclopropyl-N-(4-piperidyl)acetamide], the inhibition at 50 µM came to 27%.

As to `CC1CCCCN(C(=O)CCl)C1` (centres unmarked) [Compound 31, 2-chloro-1-(3-methylazepan-1-yl)ethanone], the inhibition at 50 µM worked out at 39%.

Consider `CC1CCCN(C(=O)CCl)CC1` (centres unmarked) [Compound 21, 2-chloro-1-(4-methylazepan-1-yl)ethanone], for which the inhibition at 50 µM was determined as 11%.

With `CCOC(=O)c1ncn2c1CN(C(=O)CCl)CCC2` [Compound 53, Ethyl 8-(2-chloroacetyl)-6,7,8,9-tetrahydro-5H-imidazo[1,5-a][1,4]diazepine-1-carboxylate], the inhibition at 50 µM turned out to be 52%.

Regarding `O=C(CCl)N(Cc1ccccc1)[C@H]1CCC[C@@H]1O` [Compound 4, N-benzyl-2-chloro-N-((1S,2S)-2-hydroxycyclopentyl)acetamide], the inhibition at 50 µM is 18%.

Take `CCOC(=O)c1cnc2n1CCN(C(=O)CCl)CC2` [Compound 54, Ethyl 7-(2-chloroacetyl)-6,7,8,9-tetrahydro-5H-imidazo[1,2-d][1,4]diazepine-3-carboxylate]: the inhibition at 50 µM came to 46%.

Take `O=C(CCl)N1CCCC(O)CC1` (centres unmarked) [Compound 15, 2-chloro-1-(4-hydroxyazepan-1-yl)ethan-1-one]: the inhibition at 50 µM worked out at 29%.

For the molecule `O=C(NCC1CCCCN(C(=O)CCl)C1)OCc1ccccc1` (centres unmarked) [Compound 27, Benzyl ((1-(2-chloroacetyl)azepan-3-yl)methyl)carbamate], the inhibition at 50 µM was 58%.

For `O=C(CCl)N1CC2CNC(C2)C1` (centres unmarked) [Compound 73, 2-chloro-1-(3,6-diazabicyclo[3.2.1]octan-3-yl)ethanone], the inhibition at 50 µM was 38%.

As to `O=C(CCl)N1CCOCC(F)(F)C1` [Compound 50, 2-chloro-1-(6,6-difluoro-1,4-oxazepan-4-yl)ethanone], the inhibition at 50 µM was determined as 17%.

Turning to `O=C(CCl)N1CCCSCC1` [Compound 51, 2-chloro-1-(1,4-thiazepan-4-yl)ethanone], the inhibition at 50 µM stood at 33%.

Turning to `CC1(CNC(=O)OCc2ccccc2)CCCN(C(=O)CCl)CC1` (centres unmarked) [Compound 35, Benzyl ((1-(2-chloroacetyl)-4-methylazepan-4-yl)methyl)carbamate], the inhibition at 50 µM is 17%.

With `COC(=O)N1CCCN(C(=O)CCl)CC1` [Compound 17, Methyl 4-(2-chloroacetyl)-1,4-diazepane-1-carboxylate], the inhibition at 50 µM is 9%.

As to `COC(=O)c1ccc(CN(C(=O)CCl)C2CCNCC2)[nH]1` [Compound 65, Methyl 5-[[(2-chloroacetyl)-(4-piperidyl)amino]methyl]-1H-pyrrole-2-carboxylate], the inhibition at 50 µM was found to be 7%.

Consider `O=C1CCCC2(CNCCN(C(=O)CCl)C2)N1` (centres unmarked) [Compound 72, 8-(2-chloroacetyl)-1,8,11-triazaspiro[5.6]dodecan-2-one], for which the “% inhibition” value is “not active”.

Turning to `CC1CCN(C(=O)CCl)CCC1=O` (centres unmarked) [Compound 42, 1-(2-chloroacetyl)-5-methylazepan-4-one], the inhibition at 50 µM came to 32%.

Regarding `CC(C)(C)OC(=O)N1CCCCC2(CCCCN(C(=O)CCl)C2)C1` (centres unmarked) [Compound 58, Tert-butyl 9-(2-chloroacetyl)-2,9-diazaspiro[6.6]tridecane-2-carboxylate], the inhibition at 50 µM turned out to be 82%.

For `CC1(O)CCCN(C(=O)CCl)CC1` (centres unmarked) [Compound 49, 2-chloro-1-(4-hydroxy-4-methylazepan-1-yl)ethanone], the inhibition at 50 µM worked out at 9%.

As to `O=C(NCC1(O)CCCCN(C(=O)CCl)C1)OCc1ccccc1` (centres unmarked) [Compound 30, Benzyl ((1-(2-chloroacetyl)-3-hydroxyazepan-3-yl)methyl)carbamate], the inhibition at 50 µM worked out at 50%.

For the molecule `CC(C)(C)OC(=O)N1CCN(C(=O)CCl)CC2(CCCC(=O)N2)C1` (centres unmarked) [Compound 60, Tert-butyl 11-(2-chloroacetyl)-2-oxo-1,8,11-triazaspiro[5.6]dodecane-8-carboxylate], the inhibition at 50 µM was 21%.

For `O=C1CC(N(Cc2ccccc2)C(=O)CCl)CN1Cc1ccccc1` (centres unmarked) [Compound 11, N-benzyl-N-(1-benzyl-5-oxo-pyrrolidin-3-yl)-2-chloro-acetamide], the inhibition at 50 µM amounted to 57%.

In the case of `CC1(O)CCCCN(C(=O)CCl)C1` (centres unmarked) [Compound 39, 2-chloro-1-(3-hydroxy-3-methylazepan-1-yl)ethanone], the inhibition at 50 µM is 20%.

As to `O=C(CCl)N1CCNCC(O)C1` (centres unmarked) [Compound 67, 2-chloro-1-(6-hydroxy-1,4-diazepan-1-yl)ethanone], the inhibition at 50 µM worked out at 35%.

Turning to `CC(C)(C)OC(=O)N1CCCC12CCCN(C(=O)CCl)CC2` (centres unmarked) [Compound 57, Tert-butyl 8-(2-chloroacetyl)-1,8-diazaspiro[4.6]undecane-1-carboxylate], the inhibition at 50 µM is 58%.

Consider `O=C(NC1CCCN(C(=O)CCl)CC1)OCc1ccccc1` (centres unmarked) [Compound 46, Benzyl (1-(2-chloroacetyl)azepan-4-yl)carbamate], for which the inhibition at 50 µM was 31%.

With `C[C@H]1CNCCCN1C(=O)CCl` [Compound 66, (S)-2-chloro-1-(2-methyl-1,4-diazepan-1-yl)ethanone], the “% inhibition” value is “not active”.

As to `O=C(CCl)N1CCOCC2(CNCCO2)C1` (centres unmarked) [Compound 71, 2-chloro-1-(1,8-dioxa-4,11-diazaspiro[5.6]dodecan-11-yl)ethanone], the “% inhibition” value is reported as “not active”.

For `O=C(CCl)N1CCCC2(CCCN2)CC1` (centres unmarked) [Compound 69, 2-chloro-1-(1,8-diazaspiro[4.6]undecan-8-yl)ethanone], the inhibition at 50 µM came out at 22%.

`NC1CCCCN(C(=O)CCl)C1` (centres unmarked) [Compound 68, 1-(3-aminoazepan-1-yl)-2-chloro-ethanone]: the inhibition at 50 µM came out at 44%.

Consider `O=C(CCl)N1CCCN(c2ccc(F)cn2)CC1` [Compound 16, 2-chloro-1-(4-(5-fluoropyridin-2-yl)-1,4-diazepan-1-yl)ethanone], for which the inhibition at 50 µM amounted to 20%.

As usually defined, the inhibition is the share of the control response that was lost under treatment. The % inhibition is the change of the read-out against control, counted positive when it falls.

Values taken from US20220387411A1, “TARGETED AUTOPHAGY CONJUGATES AND METHODS” (Frontier Medicines Corporation, priority 2019, published 2022).
